In the supplement of paper PMC11208160:

Assay: recombinant barcode read abundance after kanamycin selection (control-corrected) (log10(CPM+1)); higher = more efficient recombination; sequences stand for … in AGTGCAGAGAAAATCGGCCAGTTTTCTCTGCCTGCAGTCCGCATGCCGT…AGATTTATGCAGCGGACTGCCTTTCTCCCAAAGTGATAAACCGGACAGTATCATGGACCGGTTTTCCCGGTAATCCGTATTTGCAAGGTTGGTTTCACT; site = the 11-nt target
Procedure, shortened: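 Recombination efficiency in this pooled E. coli screen uses counts per million of barcodes at recombinant junctions, averaged and corrected against the control. The reported form is log10(CPM+1). Two replicates were plated on chloramphenicol/ampicillin LB agar as control and two on chloramphenicol/ampicillin/kanamycin with 0.1 mM IPTG.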
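Further: IS621 recombinase and bridge RNA in Escherichia coli cells.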

Compared with “TGGGTCCCTTGGGTTCTAACCTGTTGCGA (site AAATGTACTAG)”, “TGGGTCCCTTGGGTTCTAACCTGTTGCGA (site TGGGTCCCTTC)” is higher in “recombinant barcode read abundance (log10)” value: 0.252 for the first, 3 for the second.

Going from “TGGTATCCTTGGGTTCTAACCTGTTGCCT (site TGGTATACTAG)” to “TGGTATCCTTGGGTTCTAACCTGTTGCCT (site TGGTATCCTAG)”, the “recombinant barcode read abundance (log10)” value rises from 0.15 to 0.954.

“TGGTATCCTTGGGTTCTAACCTGTTGCCT (site TGGTATGCTAG)” and “TGGTATCCTTGGGTTCTAACCTGTTGCCT (site TGGTATTCTAG)” are within 0.2 log units of each other in “recombinant barcode read abundance (log10)” value: 0.396 for the first, 0.358 for the second.

Compared with “TGGTCGGCTTGGGTTCTAACCTGTTGCAC (site TAGTCAGCTGT)”, “TGGTCGGCTTGGGTTCTAACCTGTTGCAC (site TGGTCGGCTGT)” is higher in “recombinant barcode read abundance (log10)” value: 0.0913 for the first, 0.385 for the second.

“TGGTGCGCTTGGGTTCTAACCTGTTGCCT (site TGGTACGCTAG)” and “TGGTGCGCTTGGGTTCTAACCTGTTGCCT (site TGGTCCGCTAG)” are within 0.2 log units of each other in “recombinant barcode read abundance (log10)” value: 0.33 for the first, 0.324 for the second.

First: TGGTGCGCTTGGGTTCTAACCTGTTGCCT (site TGGTGCGCTAG)
Second: TGGTGCGCTTGGGTTCTAACCTGTTGCCT (site TGGTTCGCTAG)
The “recombinant barcode read abundance (log10)” value of the first is higher: 1.21 for the first, 0.0427 for the second.

First: TGGTGTCCTTGGGTTCTAACCTGTTGCCA (site TCGAGTCCTTG)
Second: TGGTGTCCTTGGGTTCTAACCTGTTGCCA (site TGGTGTCCTTG)
The “recombinant barcode read abundance (log10)” value of the first is lower: 0.0738 for the first, 0.473 for the second.

“TGGTGTCCTTGGGTTCTAACCTGTTGCCT (site TGGAGTCCTAG)” and “TGGTGTCCTTGGGTTCTAACCTGTTGCCT (site TGGCGTCCTAG)” are within 0.2 log units of each other in “recombinant barcode read abundance (log10)” value: 0.32 for the first, 0.279 for the second.

Compared with “TGGTGTCCTTGGGTTCTAACCTGTTGCCT (site TGGGGTCCTAG)”, “TGGTGTCCTTGGGTTCTAACCTGTTGCCT (site TGGTGTCCTAG)” is higher in “recombinant barcode read abundance (log10)” value: 0.158 for the first, 1.58 for the second.

Going from “TGGTTACCTTGGGTTCTAACCTGTTGCGG (site CACACGACTAA)” to “TGGTTACCTTGGGTTCTAACCTGTTGCGG (site TGGTTACCTCC)”, the “recombinant barcode read abundance (log10)” value rises from 0.0374 to 1.49.

Compared with “TGGTTGTCTTGGGTTCTAACCTGTTGCCT (site TGGCTGTCTAG)”, “TGGTTGTCTTGGGTTCTAACCTGTTGCCT (site TGGTTGTCTAG)” is higher in “recombinant barcode read abundance (log10)” value: 0.522 for the first, 1.09 for the second.

“TGTACGACTTGGGTTCTAACCTGTTGCCT (site TGTACGACTAG)” and “TGTACGACTTGGGTTCTAACCTGTTGCCT (site TGTACGTCTAA)” are within 0.2 log units of each other in “recombinant barcode read abundance (log10)” value: 0.146 for the first, 0.0793 for the second.

Compared with “TGTACGACTTGGGTTCTAACCTGTTGCGG (site GAGTGTTCTAA)”, “TGTACGACTTGGGTTCTAACCTGTTGCGG (site TGTACGACTCC)” is higher in “recombinant barcode read abundance (log10)” value: 0.0347 for the first, 0.7 for the second.

“TGTAGTACTTGGGTTCTAACCTGTTGCCT (site TGGAGTACTAA)” and “TGTAGTACTTGGGTTCTAACCTGTTGCCT (site TGTAGTACTAG)” are within 0.2 log units of each other in “recombinant barcode read abundance (log10)” value: 0.0714 for the first, 0.229 for the second.

First: TGTATGACTTGGGTTCTAACCTGTTGCCT (site AGTATGACTAG)
Second: TGTATGACTTGGGTTCTAACCTGTTGCCT (site CGTATGACTAG)
The “recombinant barcode read abundance (log10)” value of the first is higher: 0.65 for the first, 0.0259 for the second.

“TGTATGACTTGGGTTCTAACCTGTTGCCT (site GGTATGACTAG)” and “TGTATGACTTGGGTTCTAACCTGTTGCCT (site TGTATGACTAG)” are within 0.2 log units of each other in “recombinant barcode read abundance (log10)” value: 0.263 for the first, 0.46 for the second.

Going from “TGTATGTCTTGGGTTCTAACCTGTTGCCT (site AGTATGTCTAG)” to “TGTATGTCTTGGGTTCTAACCTGTTGCCT (site CGTATGTCTAG)”, the “recombinant barcode read abundance (log10)” value rises from 0.0212 to 0.529.

Compared with “TGTATGTCTTGGGTTCTAACCTGTTGCCT (site GGTATGTCTAG)”, “TGTATGTCTTGGGTTCTAACCTGTTGCCT (site TGTATGTCTAG)” is lower in “recombinant barcode read abundance (log10)” value: 0.402 for the first, 0.0364 for the second.

Compared with “TGTCAACCTTGGGTTCTAACCTGTTGCGT (site TGTCAAACTAC)”, “TGTCAACCTTGGGTTCTAACCTGTTGCGT (site TGTCAACCTAC)” is higher in “recombinant barcode read abundance (log10)” value: 0.0902 for the first, 1.02 for the second.

Compared with “TGTCAAGCTTGGGTTCTAACCTGTTGCCT (site TGTCAAACTAG)”, “TGTCAAGCTTGGGTTCTAACCTGTTGCCT (site TGTCAACCTAG)” is lower in “recombinant barcode read abundance (log10)” value: 0.574 for the first, 0.045 for the second.

“TGTCAAGCTTGGGTTCTAACCTGTTGCCT (site TGTCAAGCTAG)” and “TGTCAAGCTTGGGTTCTAACCTGTTGCCT (site TGTCAATCTAG)” are within 0.2 log units of each other in “recombinant barcode read abundance (log10)” value: 0.46 for the first, 0.295 for the second.

Going from “TGTCCACCTTGGGTTCTAACCTGTTGCCT (site AGTCCACCTAG)” to “TGTCCACCTTGGGTTCTAACCTGTTGCCT (site CGTCCACCTAG)”, the “recombinant barcode read abundance (log10)” value rises from 0.0595 to 0.267.

Going from “TGTCCACCTTGGGTTCTAACCTGTTGCCT (site GGTCCACCTAG)” to “TGTCCACCTTGGGTTCTAACCTGTTGCCT (site TGTCCACCTAG)”, the “recombinant barcode read abundance (log10)” value rises from 0.165 to 0.623.

Compared with “TGTCGAGCTTGGGTTCTAACCTGTTGCGG (site TGTCGAGCTCC)”, “TGTCGAGCTTGGGTTCTAACCTGTTGCGG (site TTCCGAGCTCC)” is lower in “recombinant barcode read abundance (log10)” value: 0.977 for the first, 0.00866 for the second.

First: TGTCGGACTTGGGTTCTAACCTGTTGCAC (site TGTCGGACTAT)
Second: TGTCGGACTTGGGTTCTAACCTGTTGCAC (site TGTCGGACTCT)
The “recombinant barcode read abundance (log10)” value of the first is higher: 0.741 for the first, 0.214 for the second.

First: TGTCGGACTTGGGTTCTAACCTGTTGCAC (site TGTCGGACTGT)
Second: TGTCGGACTTGGGTTCTAACCTGTTGCAC (site TGTCGGACTTT)
The “recombinant barcode read abundance (log10)” value of the first is higher: 0.38 for the first, 0.0148 for the second.

“TGTCGGCCTTGGGTTCTAACCTGTTGCTT (site CTATTTACTCC)” and “TGTCGGCCTTGGGTTCTAACCTGTTGCTT (site TGTCGGCCTAA)” are within 0.2 log units of each other in “recombinant barcode read abundance (log10)” value: 0.107 for the first, 0 for the second.

Compared with “TGTCTCCCTTGGGTTCTAACCTGTTGCTT (site TGTCTACCTTA)”, “TGTCTCCCTTGGGTTCTAACCTGTTGCTT (site TGTCTCCCTAA)” is higher in “recombinant barcode read abundance (log10)” value: 0.0416 for the first, 0.777 for the second.

First: TGTGACACTTGGGTTCTAACCTGTTGCAA (site AACAGGCCTAG)
Second: TGTGACACTTGGGTTCTAACCTGTTGCAA (site TGTGACACTTT)
The “recombinant barcode read abundance (log10)” value of the first is lower: 0.121 for the first, 1.54 for the second.

First: TGTGAGTCTTGGGTTCTAACCTGTTGCCT (site TGTGAGTCTAA)
Second: TGTGAGTCTTGGGTTCTAACCTGTTGCCT (site TGTGAGTCTAC)
The “recombinant barcode read abundance (log10)” value of the first is lower: 0.0418 for the first, 0.73 for the second.

First: TGTGAGTCTTGGGTTCTAACCTGTTGCCT (site TGTGAGTCTAG)
Second: TGTGAGTCTTGGGTTCTAACCTGTTGCCT (site TGTGAGTCTAT)
The “recombinant barcode read abundance (log10)” value of the first is higher: 1.1 for the first, 0.0543 for the second.

First: TGTGAGTCTTGGGTTCTAACCTGTTGCTT (site TGTGAGTCTAA)
Second: TGTGAGTCTTGGGTTCTAACCTGTTGCTT (site TGTGAGTCTAC)
The “recombinant barcode read abundance (log10)” value of the first is higher: 0.549 for the first, 0.0217 for the second.

Going from “TGTGAGTCTTGGGTTCTAACCTGTTGCTT (site TGTGAGTCTAG)” to “TGTGAGTCTTGGGTTCTAACCTGTTGCTT (site TGTGAGTCTAT)”, the “recombinant barcode read abundance (log10)” value rises from 0.193 to 0.799.

Compared with “TGTGGGTCTTGGGTTCTAACCTGTTGCCT (site TATGGGTCTAG)”, “TGTGGGTCTTGGGTTCTAACCTGTTGCCT (site TGTGGGTCTAG)” is higher in “recombinant barcode read abundance (log10)” value: 0.0229 for the first, 0.393 for the second.

Going from “TGTGTCCCTTGGGTTCTAACCTGTTGCCG (site TGTCTCCCTCG)” to “TGTGTCCCTTGGGTTCTAACCTGTTGCCG (site TGTGTCCCTCG)”, the “recombinant barcode read abundance (log10)” value rises from 0.0681 to 1.1.

“TGTTAGCCTTGGGTTCTAACCTGTTGCCA (site GGTTAGCCTAG)” and “TGTTAGCCTTGGGTTCTAACCTGTTGCCA (site TGTTAGCCTTG)” are within 0.2 log units of each other in “recombinant barcode read abundance (log10)” value: 0.0168 for the first, 0.0869 for the second.

“TGTTAGCCTTGGGTTCTAACCTGTTGCCT (site GGCTAGCCTAG)” and “TGTTAGCCTTGGGTTCTAACCTGTTGCCT (site TGTTAGCCTAG)” are within 0.2 log units of each other in “recombinant barcode read abundance (log10)” value: 0.0606 for the first, 0.0878 for the second.

“TGTTGCACTTGGGTTCTAACCTGTTGCCT (site TGTTGCACTAG)” and “TGTTGCACTTGGGTTCTAACCTGTTGCCT (site TGTTGGCCTAG)” are within 0.2 log units of each other in “recombinant barcode read abundance (log10)” value: 0.0616 for the first, 0.0587 for the second.

With “TTAACTACTTGGGTTCTAACCTGTTGCTC (site TTAACTACTAA)” the “recombinant barcode read abundance (log10)” value was 0.0118.
